Data on 13 compounds can be found in ChEMBL document CHEMBL4177744, “Discovery of novel scaffolds for γ-secretase modulators without an arylimidazole moiety” (Bioorg Med Chem, 2018).

Series [1] has as its target T1, CYP3A4 (Homo sapiens, UniProt P08684). The series can be described thus: Inhibition of CYP3A4 in human liver microsomes assessed as residual activity at 5 uM using midazolam as substrate after 20 mins in presence of NADPH by LC-MS/MS analysis relative to control. Format: ADME. The following applies: probe midazolam, read-out: Activity. Background: Liver microsomes are a subcellular fraction often used to study metabolism.

For series [2], the target named is T1, CYP3A4. The series can be described thus: Inhibition of CYP3A4 in human liver microsomes assessed as residual activity at 5 uM using midazolam as substrate preincubated for 30 mins followed by substrate addition measured after 20 mins in presence of NADPH by LC-MS/MS analysis relative to control. The class given is ADME. The following applies: probe midazolam, read-out: Activity.

For another series, the target named is Gamma-secretase. The series can be described thus: Modulatory activity against gamma-secretase in human SK-N-BE(2) cells assessed as reduction in amyloid beta 42 production after 6 hrs by sandwich ELISA. Format: cell-based. A general note: An ELISA detects its analyte on a solid surface through an enzyme-linked reagent.
Series [3] is described as follows: Intrinsic clearance in CD-1 mouse liver microsomes assessed per mg protein at 0.2 uM by LC-MS/MS analysis. Format: ADME, microsome. Particulars: read-out: CLH.
Series [4] can be described thus: Brain to plasma partition coefficient, Kp in ddY mouse at 30 mg/kg, ip after 1 hr by LC-MS/MS analysis. The class given is ADME, organism-based.
Series [5] is described as follows: […], Kp in ddY mouse brain at 30 mg/kg, ip after 3 hrs by LC-MS/MS analysis. The class given is ADME, organism-based. The following applies: BLD = below limit of detection.
Series [6] is described as follows: Drug uptake in ddY mouse plasma at 30 mg/kg, ip after 3 hrs by LC-MS/MS analysis. Format: ADME, organism-based.
A short description of series [7]: Drug uptake in ddY mouse brain at 30 mg/kg, ip after 1 hr by LC-MS/MS analysis. Particulars: in vivo. Format: ADME, organism-based.
A short description of series [8]: Drug uptake in ddY mouse plasma at 30 mg/kg, ip after 1 hr by LC-MS/MS analysis. The class given is ADME, organism-based.
A short description of series [9]: Drug uptake in ddY mouse plasma at 30 mg/kg, po after 1 hr by LC-MS/MS analysis. The class given is ADME, organism-based.
Series [10] in a line: Drug uptake in ddY mouse plasma at 30 mg/kg, po after 3 hrs by LC-MS/MS analysis. Format: ADME, organism-based.
The nature of series [11]: Drug uptake in ddY mouse brain at 30 mg/kg, po after 1 hr by LC-MS/MS analysis. The class given is ADME, organism-based. Particulars: in vivo.
A short description of series [12]: Drug uptake in ddY mouse brain at 30 mg/kg, po after 3 hrs by LC-MS/MS analysis. Format: ADME, organism-based. Particulars: in vivo.
A short description of series [13]: Brain to plasma partition coefficient, Kp in ddY mouse at 30 mg/kg, po after 1 hr by LC-MS/MS analysis. The class given is ADME, organism-based.
A short description of series [14]: Brain to plasma partition coefficient, Kp in ddY mouse at 30 mg/kg, po after 3 hrs by LC-MS/MS analysis. Format: ADME, organism-based.

pIC50: −log10 of the molar value.

T1 sequence (P08684 whole entry): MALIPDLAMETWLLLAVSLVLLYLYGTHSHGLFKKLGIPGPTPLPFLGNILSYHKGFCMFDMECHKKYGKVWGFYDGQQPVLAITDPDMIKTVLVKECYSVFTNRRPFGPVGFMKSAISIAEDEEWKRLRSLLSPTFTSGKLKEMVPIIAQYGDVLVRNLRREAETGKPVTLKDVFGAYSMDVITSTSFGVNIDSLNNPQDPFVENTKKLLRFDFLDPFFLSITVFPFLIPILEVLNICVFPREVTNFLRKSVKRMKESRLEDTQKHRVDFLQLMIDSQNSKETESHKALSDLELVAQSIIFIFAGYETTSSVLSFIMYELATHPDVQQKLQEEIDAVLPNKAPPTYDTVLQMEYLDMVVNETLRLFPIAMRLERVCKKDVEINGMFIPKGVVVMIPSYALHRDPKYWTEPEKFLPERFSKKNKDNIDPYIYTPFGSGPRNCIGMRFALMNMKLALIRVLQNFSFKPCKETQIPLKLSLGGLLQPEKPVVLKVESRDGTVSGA

For `COc1cc(/C=C2\CCCN([C@@H](C)c3ccc(F)cc3)C2=O)ccc1-n1cnc(C)c1`, the activity at 20 min, 5 µM is 40% at CYP3A4 [1] and 29% on CYP3A4 [2].
In general, pIC50 refers to −log10 of the IC50, conventionally taken in molar units. As to `CCCCN1CCC(c2c(C)nc3c(OCc4ccccc4C)cccn23)CC1`, on Gamma-secretase, the pIC50 was 5.06. Further, in series [3], the microsomal CLint at 0.2 µM was more than 1000 µL/min/mg.
Consider `Cc1ccccc1COc1cccn2c(C3CCN(C)CC3)c(C)nc12`, for which, on Gamma-secretase, the pIC50 was 5.01.
Turning to `Cc1nc2c(OCc3ccccc3)cccn2c1CN(C)CCN(C)C`, the pIC50 at Gamma-secretase is less than 4.30.
Consider `CCNC(=O)c1ccc(-c2c(C)nc3c(OCc4ccccc4C)cccn23)cc1`, for which the pIC50 at Gamma-secretase is 5.64.
Still for that read-out and setting: the result for `Cc1nc2c(OCc3ccccc3)cccn2c1C1CCN(C2CCCCC2)CC1` reads 5.24.
With `CCCC(=O)N1CCC(c2c(C)nc3c(OCc4ccccc4C)cccn23)CC1.Cl`, the Kp at 1 h in series [4] turned out to be 1. Besides, in [5], the Kp result was “Bld”. Besides, the concentration at 3 h in series [6] came out at 9.4 nM. The Drug uptake in series [7] is recorded as 0.71 nmol/g. This compound also yielded a concentration at 1 h in series [8] of 700 nM. Further, on Gamma-secretase, the pIC50 was 6.16. Moreover, the microsomal CLint at 0.2 µM in [3] was more than 1000 µL/min/mg.
For the compound `CCCCc1ccc(-c2c(C)nc3c(OCc4ccccc4C)cccn23)cc1`, the pIC50 on Gamma-secretase was less than 4.30. In addition, the microsomal CLint at 0.2 µM in series [3] amounted to 628 µL/min/mg.
Take `CCOC(=O)c1ccc(-c2c(C)nc3c(OCc4ccccc4C)cccn23)cc1`: the negative logarithm of the IC50 (pIC50) at Gamma-secretase is 5.74.
Still for that read-out and setting: the value for `CCOC(=O)N1CCC(c2c(C)nc3c(OCc4ccccc4C)cccn23)CC1` was 5.89; that for `Cc1ccccc1COc1cccn2c(-c3ccncc3)c(C)nc12` was 5.15.
Take `CCN1Cc2cc(-c3c(C)nc4c(OCc5ccccc5C)cccn34)ccc2C1=O.Cl`: at Gamma-secretase, the pIC50 was 6.41. In series [3], the microsomal CLint at 0.2 µM was found to be 611 µL/min/mg. In addition, in series [9], the concentration at 1 h was determined as 2500 nM. The compound further yielded a concentration at 3 h in series [10] of 960 nM. Also, the Drug uptake in [11] came out at 1.9 nmol/g; in series [12], 0.69 nmol/g. For the same compound, the Kp at 1 h in series [13] turned out to be 0.72. The Kp at 3 h in series [14] amounted to 0.72. Moreover, the activity at 20 min, 5 µM on CYP3A4 [1] is 85%; on CYP3A4 [2] it was 87%.
For the compound `CCN(C)C(=O)c1ccc(-c2c(C)nc3c(OCc4ccccc4C)cccn23)cc1`, the pIC50 on Gamma-secretase is less than 5.00.
